Data from EP4700025A1, “AMIDE COMPOUND, PHARMACEUTICAL COMPOSITION COMPRISING SAME, AND USE THEREOF” (Suzhou Genhouse Bio Co., Ltd., priority 2023, dated 2024).

How the values were obtained:
HCT-116 = assay: CCK8 proliferation inhibition, HCT-116; format: cell-based; conditions: Homo sapiens, 192 h, CCK8, 8 days after drug treatment
Procedure: (§1) The above normally growing cells were digested with a cell trypsinization solution, centrifuged, counted, and seeded into a 96-well plate at an appropriate cell density (2000 cells/well) at 100 µL/well. The next day after cell seeding, the compounds at different concentrations were added to the wells. Three replicate wells were set for each concentration point, and a corresponding DMSO negative control group was also set. CCK8 solution was added to each well 8 days after drug treatment. The plate was incubated at 37 °C for a period of time (OD450 of the vehicle group reached 1.0 or higher) before the absorbance at 450 nm was read using a microplate reader. The inhibition rates were calculated, and the EC50 values were determined by fitting using the GraphPad Prism 7.0 software. Table 2. EC50 values of compounds at cellular level

HCT-116-MTAP^-/- = assay: CCK8 proliferation inhibition, HCT-116-MTAP^-/-; format: cell-based; conditions: Homo sapiens, 192 h; HCT-116-MTAP^-/- (MTAP-deficient); CCK8, 8 days after drug treatment
Procedure: as §1

SDMA [1] = assay: SDMA Inhibition Assay in HCT-116 cells; format: cell-based; conditions: Homo sapiens, HCT-116, 96 hours
Procedure: (§2) The next day, the cells were treated with the compounds at different concentrations (with an initial concentration of 10 µM, 5-fold dilution, 9 concentration gradients). After 96 hours, the culture medium was pipetted out and the cells were washed 2 times with 100 µL of PBS. The cells were then fixed with 4% paraformaldehyde and incubated at room temperature for 20 min. The fixative solution was discarded, and the cells were washed with PBS. 150 µL of specialized blocking solution (containing 1% Triton-100) was added to each well for blocking at room temperature for 2 hours, and the plate was washed with PBS to remove excess blocking solution. […] The cells were incubated at 4 °C overnight. The next day, the cells were separately washed 2 times with 1× PBST. […] The cells were incubated at room temperature for 2 hours. The cells were washed 2 times with 1× PBST and 1 time with PBS. Fluorescence signals at 700 nm and 800 nm were separately detected using a Li-COR Odyssey two-color near-infrared laser imager. The inhibition rates were calculated, and the EC50 values were determined by fitting using the GraphPad Prism 7.0 software. Table 3. Inhibition of SDMA by test compounds

SDMA [2] = assay: SDMA Inhibition Assay in HCT-116-MTAP^-/- cells; format: cell-based; conditions: Homo sapiens, 96 hours
Procedure: as §2

SDMA [3] = assay: SDMA Inhibition Assay in A549 cells; format: cell-based; conditions: Homo sapiens, A549, 96 hours
Procedure: as §2

[4] = Pharmacokinetic assay in mice; format: in vivo, Balb/c mice; conditions: mouse; for AUC(0-t) / Cmax / AUC(0-inf) / C0 / MRT inf / Vd / Tmax: male, Balb/c, plasma; for MRT inf: read-out: MRT(0-∞); for Vd: read-out: Vz; for F: PO 10mpk vs IV 2mpk
Procedure: Eighteen male Balb/c mice aged 6 to 8 weeks were randomly divided into 2 groups (IV group and PO group). The corresponding compounds were administered to the animals in the IV group by tail intravenous injection at 2 mg/kg, and the corresponding compounds were administered to the animals in the PO group by oral gavage at 10 mg/kg or 100 mg/kg. The animals in the IV group were allowed free access to food and water, and the animals in the PO group were fasted overnight before administration and were fed 4 h after administration. Throughout the experiment, the animals were allowed free access to water. Plasma samples were separately collected at 0.083 h (only group IV), 0.25 h, 0.5 h, 1 h, 2 h, 4 h, 8 h, and 24 h after administration. About 100 µL of blood was collected from the orbit of the animal, placed into a 1.5 mL anticoagulation centrifuge tube, and centrifuged at 8000 rpm and 4 °C for 10 min. The upper plasma sample was transferred to an EP tube. The plasma samples were stored in a refrigerator at -80 °C until sample analysis. Pharmacokinetic parameters of the drug were calculated based on the drug concentration-time data, including the peak concentration Cmax, peak time Tmax, clearance rate CL, steady state apparent volume of distribution Vss, area under drug-time curve AUC, elimination half-life t1/2, bioavailability, and the like. Data below the 80% lower limit of quantification were excluded from the calculation of pharmacokinetic parameters.

[5] = Pharmacokinetic assay in rats; format: in vivo, SD rats; conditions: rat; for MRT inf: read-out: MRT(0-∞)
Procedure: In this experimental example, the pharmacokinetic behavior of the test compounds after administration by intravenous injection (IV) and oral gavage (PO) in SD rats was tested.
On the day of administration, rats were weighed for actual body weight, and the administration volume was calculated. Each compound was tested in two groups with 3 rats in each group; one group was subjected to administration by single intravenous injection, and the other group was subjected to administration by single oral gavage. The whole blood samples were collected via the jugular vein at prescribed time points (0.25 h, 0.5 h, 1 h, 2 h, 4 h, 8 h, and 24 h after administration). After the blood sample collection, the samples were immediately transferred to labeled commercial sample tubes containing K2-EDTA (0.85-1.15 mg), followed by centrifugation (3200× g, 4 °C, 10 min) and plasma collection. The plasma was transferred to a pre-cooled centrifuge tube, frozen in dry ice, and then stored in an ultra-low temperature freezer at -60 °C or lower until the LC-MS/MS analysis was performed.
Plasma concentrations were determined by the LC-MS/MS method. Plasma drug concentration data for the compounds were processed using a non-compartmental model in the WinNonlin Version 6.3 (Pharsight, Mountain View, CA) pharmacokinetic software. The relevant pharmacokinetic parameters were calculated by a linear-log trapezoidal method.

A549 = assay: CCK8 proliferation inhibition, A549; format: cell-based; conditions: Homo sapiens, 192 h, CCK8, 8 days after drug treatment
Procedure: as §1

## CC1OCc2c1c(N)nc1cc(F)c(C(=O)N(Cc3ccc4c(c3)OC(F)(F)O4)C3CC3)cc21 (racemic) [Example I-36]
HCT-116
  EC50: > 10000 nM
HCT-116-MTAP^-/-
  EC50: 24.2 nM

## Cn1ncc2c(N)nc3cnc(C(=O)N4CCN(C5(C)CC5)CC4c4ccc5c(c4)OC(F)(F)O5)cc3c21 (racemic) [Example I-113]
SDMA [1]
  EC50: 403 nM
HCT-116
  EC50: > 10000 nM
HCT-116-MTAP^-/-
  EC50: 50.5 nM
SDMA [2]
  EC50: 4.1 nM

## Cn1ncc2c(N)nc3ccc(C(=O)N4CCOCC4c4ccc5c(c4)OC(F)(F)O5)cc3c21 (single isomer, unassigned) [I-4 (PEAK1)]
SDMA [1]
  EC50: 906 nM
HCT-116
  EC50: 6410 nM
SDMA [3]
  EC50: 6.1 nM
HCT-116-MTAP^-/-
  EC50: 47.7 nM
SDMA [2]
  EC50: 9.1 nM

## Nc1nc2cnc(C(=O)N3CCOC[C@@H]3c3ccc(C(F)(F)F)cc3)cc2c2c1COC2 [Control compound B, reference compound]
[4]; 2 mg/kg, IV 2mpk
  AUC(0-t): 6.9 µM·h
[4]; 10 mg/kg, PO 10mpk
  AUC(0-t): 26.5 µM·h
  Cmax: 5760 nM

## CN(Cc1ccc2c(c1)OC(F)(F)O2)C(=O)c1ccc2nc(N)c3cnn(C)c3c2c1 [Example I-2]
SDMA [1]
  EC50: 1010 nM
HCT-116
  EC50: 6740 nM
[4]; 2 mg/kg, IV 2mpk
  AUC(0-inf): 4.11 µM·h
  AUC(0-t): 3.53 µM·h
  C0: 1520 nM
  MRT inf: 4 h
  Vd: 4.7 L/kg
[4]; 10 mg/kg, PO 10mpk
  AUC(0-inf): 18.8 µM·h
  AUC(0-t): 18.1 µM·h
  Cmax: 2190 nM
  Tmax: 1 h
  MRT inf: 7.1 h
[4]; IV 2mpk
  CLz: 18.3 mL/min/kg
  R_AUC(t/∞): 85.8%
  t1/2z: 2.8 h
[4]; PO 10mpk
  R_AUC(t/∞): 96.3%
  t1/2z: 5.5 h
[4]
  F: 91.5%
SDMA [3]
  EC50: 5.1 nM
[5]; SD, plasma, 2 mg/kg, IV 2mpk
  AUC(0-inf): 6.91 µM·h
  AUC(0-t): 6.42 µM·h
  C0: 2340 nM
  MRT inf: 4.3 h
[5]; SD, plasma, 2 mg/kg, IV 2mpk, read-out: Vz
  Vd: 3.4 L/kg
[5]; SD, plasma, 10 mg/kg, PO 10mpk
  AUC(0-inf): 17.2 µM·h
  AUC(0-t): 14.8 µM·h
  Cmax: 1680 nM
  Tmax: 2.3 h
  MRT inf: 7.2 h
[5]; IV 2mpk
  CLz: 13 mL/min/kg
  R_AUC(t/∞): 91.6%
  t1/2z: 3.5 h
[5]; PO 10mpk
  R_AUC(t/∞): 86.6%
  t1/2z: 4.7 h
[5]; PO 10mpk (IV reference 2mpk; 0.2mpk for I-7)
  F: 49.9%
HCT-116-MTAP^-/-
  EC50: 42.6 nM
SDMA [2]
  EC50: 8.3 nM

## Cn1ncc2c(N)nc3cc(F)c(C(=O)N4CCOCC4c4ccc5c(c4)OC(F)(F)O5)cc3c21 (stereo not drawn) [Example I-3]
SDMA [1]
  EC50: 101 nM
HCT-116
  EC50: 2370 nM
SDMA [3]
  EC50: 2.1 nM
HCT-116-MTAP^-/-
  EC50: 8.4 nM
SDMA [2]
  EC50: 0.6 nM

## Cn1ncc2c(N)nc3ccc(C(=O)N4CCOCC4c4ccc5c(c4)OC(F)(F)O5)cc3c21 (stereo not drawn) [Example I-4]
SDMA [1]
  EC50: 381 nM
HCT-116
  EC50: > 10000 nM
SDMA [3]
  EC50: 7 nM
HCT-116-MTAP^-/-
  EC50: 27 nM
SDMA [2]
  EC50: 7.4 nM

## CCN(Cc1ccc2c(c1)OC(F)(F)O2)C(=O)c1ccc2nc(N)c3cnn(C)c3c2c1 [Example I-5]
SDMA [1]
  EC50: 200 nM
HCT-116
  EC50: 2360 nM
[4]; 2 mg/kg, IV 2mpk
  AUC(0-inf): 3.62 µM·h
  AUC(0-t): 3.32 µM·h
  C0: 1860 nM
  MRT inf: 2.9 h
  Vd: 4.4 L/kg
[4]; 10 mg/kg, PO 10mpk
  AUC(0-inf): 12.4 µM·h
  AUC(0-t): 12.4 µM·h
  Cmax: 1930 nM
  Tmax: 1 h
  MRT inf: 4.8 h
[4]; IV 2mpk
  CLz: 21.7 mL/min/kg
  R_AUC(t/∞): 91.7%
  t1/2z: 2.4 h
[4]; PO 10mpk
  R_AUC(t/∞): 99.9%
  t1/2z: 2.4 h
[4]
  F: 68.6%
SDMA [3]
  EC50: 2.6 nM
HCT-116-MTAP^-/-
  EC50: 4.7 nM
SDMA [2]
  EC50: 2.1 nM

## C[C@@H]1COCC(c2ccc3c(c2)OC(F)(F)O3)N1C(=O)c1cc2c(cc1F)nc(N)c1cnn(C)c12 (stereo partly drawn) [Example I-11]
SDMA [3]
  EC50: 0.3 nM
HCT-116-MTAP^-/-
  EC50: 0.9 nM
A549
  EC50: 2.5 nM
SDMA [2]
  EC50: 0.4 nM

## CC(C)N(Cc1ccc2c(c1)OC(F)(F)O2)C(=O)c1cc2c(cc1F)nc(N)c1cnn(C)c12 [Example I-13]
SDMA [3]
  EC50: 2.1 nM
HCT-116-MTAP^-/-
  EC50: 3.4 nM
A549
  EC50: 10.8 nM
SDMA [2]
  EC50: 3.5 nM
